Converted amounts (≈) assume the structure as drawn.
Experiments:
Format in all cases: functional
[1] = test system: Mycolicibacterium smegmatis; test: Antimycobacterial activity against Mycobacterium smegmatis MC2 155 under aerobic condition after 48 hrs by MTT assay; conditions: str. MC2 155, 48 h
[2] = test system: Mycolicibacterium smegmatis; test: Antimycobacterial activity against Mycobacterium smegmatis MC2 155 under hypoxic condition after 96 hrs; conditions: str. MC2 155, 96 h
[3] = test system: Mycolicibacterium smegmatis; test: Selectivity ratio of MIC for Mycobacterium smegmatis ICHO1018 overexpressing KasB to MIC for wild-type Mycobacterium smegmatis MC2 155
[4] = test system: Mycobacterium tuberculosis; test: Antimycobacterial activity against Mycobacterium tuberculosis H37Rv ATCC 27294 by microbroth dilution method
[5] = test system: Mycolicibacterium smegmatis; test: Antimycobacterial activity against wild-type Mycobacterium smegmatis MC2 155; conditions: str. MC2 155
[6] = test system: Mycolicibacterium smegmatis; test: Antimycobacterial activity against Mycobacterium smegmatis ICHO1017 overexpressing KasA
[7] = test system: Mycolicibacterium smegmatis; test: Antimycobacterial activity against Mycobacterium smegmatis ICHO1019 overexpressing FabH
[8] = test system: Mycobacterium tuberculosis; test: Ratio of MBC99.9 to MIC for Mycobacterium tuberculosis H37Rv ATCC 27294
[9] = test system: Mycolicibacterium smegmatis; test: Antimycobacterial activity against Mycobacterium smegmatis ICHO1001 harboring pMV261
[10] = test system: Mycolicibacterium smegmatis; test: Antimycobacterial activity against Mycobacterium smegmatis ICHO1018 overexpressing KasB
[11] = test system: Mycobacterium tuberculosis; test: Ratio of MBC99.9 to MIC for Mycobacterium tuberculosis LV54
[12] = test system: Mycobacterium tuberculosis; test: Antimycobacterial activity against Mycobacterium tuberculosis LV54 by microbroth dilution method

Row | SMILES | MIC [1] | MIC [2] | Ratio [3] | MIC [4] | MIC [5] | MIC [6] | MIC [7] | Ratio [8] | MIC [9] | MIC [10] | Ratio [11] | MIC [12]
1 | NNC(=O)c1ccncc1 [ISONIAZID] | 2.5 mg/L (≈ 18.2 µM) | 25 mg/L (≈ 182 µM) | – | – | – | – | – | – | – | – | – | –
2 | C=C1C[C@@]23C=CC(=O)[C@@](C)(CCC(=O)Nc4c(O)ccc(C(=O)O)c4O)[C@@H]2C[C@@H]1CC3 (racemic) [PLATENCIN] | 0.5 mg/L (≈ 1.18 µM) | 0.3 mg/L (≈ 0.705 µM) | >17 | 2 mg/L (≈ 4.7 µM) | 0.5 mg/L (≈ 1.18 µM) | 1 mg/L (≈ 2.35 µM) | 1 mg/L (≈ 2.35 µM) | >64 | 0.5 mg/L (≈ 1.18 µM) | > 8.5 mg/L | >64 | 1 mg/L (≈ 2.35 µM)
